The source made the active and inactive calls.
Experiments:
Escherichia coli [1] = assay: Binding affinity to Escherichia coli DHDPS assessed as formation of purple chromophore after 10 to 40 mins by o-aminobenzaldehyde assay
Escherichia coli [2] = assay: Binding affinity to Escherichia coli DHDPS assessed as formation of purple chromophore after 30 to 60 mins by o-aminobenzaldehyde assay using UV-vis spectrophotometric analysis using LC-MS analysis
Escherichia coli [3] = assay: Binding affinity to Escherichia coli DHDPS assessed as formation of purple chromophore after 70 mins by o-aminobenzaldehyde assay using UV-vis spectrophotometric analysis using UV-vis spectrophotometric analysis

Measured: Activity

O=C(O)C1=N[C@H](C(=O)O)C[C@H](O)C1
active: all assays above

Source: ChEMBL document CHEMBL1667845, “LC-MS and NMR characterization of the purple chromophore formed in the o-aminobenzaldehyde assay of dihydrodipicolinate synthase” (Bioorg Med Chem, 2011)
